# Laboratory results published in US20210147481A1, “PEPTIDE-BASED INHIBITORS OF MARK FAMILY PROTEINS” (Ohio Universtiy, priority 2017, published 2021).
# Peptide text beside a SMILES is read from it.
# What was measured:
# [1] = molecular target: T1, MARK2 (Homo sapiens, UniProt Q7KZI7); assay: Validation of tR1 as a substrate for MARK2 (western blot, α-pTau Ser262); format: biochemical; conditions: ATP, 60 minutes at 32° C.
# From the text: Once an otherwise competent kinase-substrate pair was developed for a working phosphorylation assay, tR1 was validated as a substrate for MARK2. The tR1 peptide (NVKSKIGSTENLK [SEQ ID NO: 1]) was synthesized using standard Fmoc-based solid-phase synthesis procedures and the final sequence was either acylated (tR1) or labeled with 5-carboxyfluorescein (tR1) on its N-terminus (FIG. 6A). See the experimental procedures, below, for details on the synthesis, labeling, purification and characterization of tR1 peptides. To evaluate whether tR1 is recognized as a substrate by MARK2, MARK2 was incubated with ATP in the presence of varying concentrations of tR1 peptide for 60 minutes at 32° C. in phosphorylation buffer. Following incubation, phosphorylated tR1 peptides were separated by SDS-PAGE and identified by Western blot using antibodies specific for hTau pSer262 (FIG. 6B). Western blot analysis confirmed tR1 as a substrate of MARK2 by the presence of a sharp band at the highest concentration (100 μM).
# (§1) Phosphorylation assays were performed in 30 μL phosphorylation buffer (50 mM Tris-HCl, 5 mM MgCl2, 2 mM EGTA, 0.5 mM DTT, 0.5 mM benzamidine HCl, 0.5 mM PMSF, pH 8.0) and depending on the experimental conditions. […] Images were acquired by a Bio-Rad Gel Doc EZ imager and the band intensity was quantified using Image Lab Software c5.2.1 (Bio-Rad).
# [2] = tested on: trypsin; assay: Trypsin degradation control (RP-HPLC); format: in vitro ADME; conditions: 37° C.
# Method: Stock peptide solutions for use in stability assays were prepared by dissolving tR1 to a final concentration of 5 mg/mL in dimethyl sulfoxide (DMSO). For stability tests, 2 μL of stock tR1 peptides were added to 198 μL pre-warmed RPMI medium supplemented with 25% (v/v) heat-inactivated human AB serum or neurobasal (NB) media at a final concentration of 50 μg/mL. Each reaction was subsequently incubated at 37° C. for the indicated times. Following incubation, 400 μL aqueous trichloroacetic acid (15%, w/v) was added to each reaction and the samples were immediately cooled on ice for 15 minutes. The samples were then centrifuged 3× at 14,000 rpm to remove precipitated proteins. […] The background signal was subtracted from each respective spectrum and the fraction of intact peptide was quantified from product peak integration normalized to undigested controls. […]
# A major limitation to the therapeutic efficacy of peptides is their susceptibility to proteolytic degradation. Indeed, short peptides generally have a serum half-life measured in minutes. The in vitro stability of tR1 peptides in the presence of proteolytic enzymes was determined. […] Following the incubation, the reactions were quenched using haloacetic acids and the extent of degradation was quantified by analytical HPLC.
# [3] = molecular target: T1, MARK2; assay: In vitro phosphorylation assay: inhibition of MARK2-mediated phosphorylation of hTau-K18 (western blot, α-Tau pSer262); format: biochemical
# Method: The ability for MARK2 to phosphorylate hTau K18 was evaluated in vitro by incubating MARK2 with hTau-K18 in the presence or absence of ATP (FIG. 1B). All phosphorylation reactions were carried out for 60 minutes at 32° C. in phosphorylation buffer (50 mM Tris-HCl, 5 mM MgCl2, 2 mM EGTA, 0.5 mM DTT, 0.5 mM benzamidine HCl, 0.5 mM PMSF, pH 8.0). Following the reaction, phosphorylated hTau-K18 proteins were separated by SDS-PAGE and identified by western blot using antibodies specific for hTau pSer262 (FIG. 1B, lanes 1 and 2). As a loading control, total hTau-K18 in each lane was quantified by western blot using antibodies specific for non-phosphorylated hTau-K18 (FIG. 1B, lower image). To ensure that the phosphorylation of hTau-K18 was a result of kinase activity and not auto-phosphorylation by ATP, hTau-K18 was incubated in the absence of MARK2 with or without ATP (FIG. 1B, lanes 3 and 4).
# The ability for the tR1 peptide to act as an inhibitor of MARK2-mediated phosphorylation of hTau-K18 in vitro was examined. To test this, MARK2 and hTau-K18 were incubated in the presence of varying concentrations of tR1 for 60 minutes at 32° C. in phosphorylation buffer. Following the reaction, the proteins were separated by SDS-PAGE and identified by Western blot using antibodies specific for hTau pSer262 (FIG. 1C). Total hTau-K18 in each lane was quantified using antibodies specific for non-phosphorylated hTau-K18 (FIG. 1C, lower image).
# as §1, with “conditions. 100 μM ATP, 10 μM hTau K18, 10 nM MARK2, and 10 μM tR1 were added to the reaction mixture. The reaction was carried out for 1 hour at 32° C.” for “conditions.”
# T1 sequence (Q7KZI7 whole entry): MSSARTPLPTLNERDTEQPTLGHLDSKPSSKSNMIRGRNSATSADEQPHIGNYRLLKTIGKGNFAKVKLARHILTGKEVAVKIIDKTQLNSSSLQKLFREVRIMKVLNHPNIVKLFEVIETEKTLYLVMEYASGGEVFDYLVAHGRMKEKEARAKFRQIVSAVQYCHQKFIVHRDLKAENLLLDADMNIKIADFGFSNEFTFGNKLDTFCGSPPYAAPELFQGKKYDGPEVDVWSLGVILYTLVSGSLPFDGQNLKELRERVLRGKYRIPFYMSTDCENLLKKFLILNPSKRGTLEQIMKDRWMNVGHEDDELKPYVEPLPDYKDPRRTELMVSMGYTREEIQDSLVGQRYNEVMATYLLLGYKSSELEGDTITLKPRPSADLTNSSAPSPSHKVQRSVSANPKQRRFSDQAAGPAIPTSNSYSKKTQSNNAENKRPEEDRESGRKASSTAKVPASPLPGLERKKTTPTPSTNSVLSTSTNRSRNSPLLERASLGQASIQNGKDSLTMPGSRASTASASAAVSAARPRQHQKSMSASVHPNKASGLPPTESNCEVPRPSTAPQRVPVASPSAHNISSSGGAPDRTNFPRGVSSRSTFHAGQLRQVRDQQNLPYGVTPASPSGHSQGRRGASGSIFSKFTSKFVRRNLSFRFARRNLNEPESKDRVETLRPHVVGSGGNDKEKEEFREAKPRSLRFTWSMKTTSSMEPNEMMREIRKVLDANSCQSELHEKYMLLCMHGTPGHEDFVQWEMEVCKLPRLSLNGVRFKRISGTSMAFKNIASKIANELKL
compound,measurement,setting,value
"CC[C@H](C)[C@H](NC(=O)[C@H](CCCCN)NC(=O)[C@H](CO)NC(=O)[C@H](CCCCN)NC(=O)[C@@H](NC(=O)[C@H](CC(N)=O)NC(C)=O)C(C)C)C(=O)NCC(=O)N[C@@H](CO)C(=O)N[C@H](C(=O)N[C@@H](CCC(=O)O)C(=O)N[C@@H](CC(N)=O)C(=O)N[C@@H](CC(C)C)C(=O)N[C@@H](CCCCN)C(N)=O)[C@@H](C)O [tR1, NVKSKIGSTENLK] (Ac-NVKSKIGSTENLK-NH2)",phosphorylation of tR1 by MARK2 (western blot),"[1]; 0, 1, or 10 μM peptide",Phosphorylation was not seen
same,phosphorylation of tR1 by MARK2 (western blot),[1]; 100 μM peptide,sharp band
same,degradation by trypsin,"[2]; trypsin 10 ng/μL in digestion buffer, 15 minutes",complete degradation
same,time to degradation in buffer containing trypsin,[2]; trypsin 10 ng/μL,less than 15 minutes
same,established in vitro inhibitory concentration,[3],10 µM
same,inhibition at 50 µM,"[3]; 50 μM tR1, 60 minutes at 32° C. in phosphorylation buffer, read-out: inhibition of MARK2 activity (hTau-K18 Ser262 phosphorylation, densitometry)",≤ 66%
same,concentrations at which tR1 effectively inhibits MARK2-mediated phosphorylation of hTau-K18,"[3]; 60 minutes at 32° C., western blot",greater than 0.5 μM
